The text below walks through data of US20070275935A1, “Estratriene Derivatives” (priority 2003, published 2007).

Test [1] has as its system Human airway smooth muscle (HASM) cells. Put plainly: Thrombin-induced proliferation of human airway smooth muscle (HASM) cells, cell number after 48 h. The test is classed as cell-based. As to conditions: for IC50: Homo sapiens, negative log of the concentration that reduces the thrombin-induced proliferative response by 50%, pIC50 of 4.00 = inactive, read-out: HASM-Thr pIC50 (converted); for HASM- Thr pIC25 / HASM- Thr pIC75: two site model, thrombin-induced proliferation; for HASM- Thr pIC25: first phase (inhibition up to 50%); for HASM- Thr pIC75: second phase (inhibition up to 100%). The procedure:
Human airway smooth muscle (HASM) cells were cultured from macroscopically normal bronchi (0.5-2 cm diameter) obtained from lung resection or heart-lung transplant specimens provided by the Alfred Hospital (Melbourne) according to methods published in detail previously (Fernandes et al., 1999).
Approximately 0.1 g of smooth muscle was stripped from the wall of the bronchus for each cell culture. Dissected tissue was immersed in Dulbecco's modified Eagle's medium (DMEM) (Flow Laboratories, Scotland), supplemented with 100 U/mL penicillin G (CSL, Australia) and 100 ug/mL streptomycin (CSL, Australia). The tissue was rinsed in phosphate buffered saline (PBS; Oxoid, England) and the airway smooth muscle was chopped into 2 mm^3 pieces and digested for 2 hours in DMEM containing elastase (0.5 mg/mL: Worthington Biochemical, USA) followed by a 12 hour incubation in DMEM containing collagenase (1 mg/mL) (Worthington Biochemical, USA), at 37° C. with agitation.
The resulting cell suspension was centrifuged and washed three times in phosphate buffered saline (PBS). Following the last centrifugation step, the cells were resuspended in 25 mL of DMEM supplemented with L-glutamine (2 mM: Sigma, USA), penicillin G (100 U/mL), streptomycin (100 μg/mL), amphotericin B (2 μg/mL: Wellcome, UK) and heat-inactivated FCS (10% v/v: CSL, Australia) and seeded into 25 cm^2 culture flasks. The primary isolates were incubated for 7 to 14 days to reach confluence.
Cells were harvested weekly by 10 min exposure to trypsin (0.5%: CSL, Australia) and EDTA (1 mM in PBS: BDH, Australia) and passaged at a 1:3 ratio into 75 cm^2 flasks.
The activity of the compounds has been established in cell culture by exploring their effects on mitogen-induced increases in cell number. We investigated the effects of 2MEO and its analogues, 4NO and 4NOM, on the proliferation of HASM cells in response to the proliferative stimulus of either thrombin of basic fibroblast growth factor (bFGF). Cells were seeded onto 6-well plates at a density of 1.5×10^4 cells cm^2, made quiescent by removal of serum-containing media for 24 hours and then stimulated for 48 h with either thrombin (0.3 U/ml) or bFGF (300 pM). The test compounds were pre-incubated with HASM cells for 30 minutes before the addition of thrombin. At the end of the 48 hour incubation period, cells were detached from the culture plate by trypsin (0.5% w/v in PBS containing 1 mM EDTA), incubated for 5 minutes at ambient temperature in PBS containing 0.5% (w/v) trypan blue, washed twice (2% FCS in PBS), isolated by centrifugation (12,000×g, 5 min) and resuspended in 200 μl 2% FCS in PBS for counting in a haemocytometer chamber.
Data are expressed as a percentage of the cell number in vehicle treated wells and are presented as the mean and standard error of the mean.
The potency of the compounds in regulating thrombin-induced proliferation of human airway smooth muscle (HASM) was assessed in cells maintained in culture as described above. The potencies are presented as pIC50 values (Column A of Table 4) denoting the negative log of the concentration that reduces the proliferative response by 50%. […] When the single phase model was determined to be more appropriate, the values of pIC25 and pIC75 were not calculated or shown in the table.

Test [2] has as its system type II airway epithelial cell line, A549. Put plainly: Proliferation of A549 cells in response to 5% FCS. The test is classed as cell-based, human. The following applies: Homo sapiens, A549; proliferation in response to 5% FCS; pIC50 of 4.00 = inactive; read-out: A549 PIC50 (converted). The procedure:
The effects of 4NO were evaluated in a number of non-smooth muscle cell types including the type II airway epithelial cell line, A549 (ATCC accession number ATCC CCL-185 Lung carcinoma human) (FIG. 2); the human breast tumour cell line, MCF7, (ATTC accession number ATCC HTB-22 breast adenocarcinoma, human) which expresses the estrogen receptor (FIG. 3); and in bovine aortic endothelial cells (BAEC) (FIG. 4).
The effects of test compounds were examined on proliferation of A549 cells in response to 5% fetal calf serum (FCS). Analogues were pre-incubated with A549 cells for 30 min before the addition of FCS. The incubation continued for 48 h before cell enumeration. Data are expressed as a percentage of the cell number in vehicle treated wells and are presented as the mean and standard error of the mean. Similarly the effects of 2MEO and 4NO on proliferation of MCF7 in response to 5% FCS or epidermal growth factor (EGF, 300 pM) were examined, as were the effects of 2MEO and 4NO on proliferation of BAEC in response to 5% FCS. The incubation parameters were the same as described above and results are presented as the mean and standard error of the mean.
This assay was also used to evaluate the ability of other compounds to inhibit the proliferation of non-smooth muscle cells MCF7 and A549 (described above) in response to 5% FCS. The results of this assay are presented in Table 4 (columns G and H respectively). The potency of the compounds was considerably less in inhibiting proliferation of these cell lines than it was for HASM. These observations support the contention that there are cell type-specific targets for the actions of these compounds. Such assays may also be adopted to examine the effect of other disclosed compounds on these cells or on other non-smooth muscle cells of interest.

In test [3] the test system is GM-CSF production by Human Airway Smooth Muscle Cells. Put plainly: Interleukin-1α-mediated GM-CSF production by HASM cells (ELISA). The test is classed as cell-based. As to conditions: inhibition of interleukin-1α (1 ng/ml)-mediated GM-CSF production; concentration not given; * not defined. Background: In an ELISA, binding on a coated surface is turned into a signal by an enzyme label.

The next test addresses T1, Estrogen Receptor (ER) (Rattus norvegicus, UniProt P06211).
T1 construct: using rat uterine cytosol as a source of ER; from tissue; host or cells: rat uterus, cytosol fraction (30000 x g supernatant)
T1 sequence (P06211 1-600): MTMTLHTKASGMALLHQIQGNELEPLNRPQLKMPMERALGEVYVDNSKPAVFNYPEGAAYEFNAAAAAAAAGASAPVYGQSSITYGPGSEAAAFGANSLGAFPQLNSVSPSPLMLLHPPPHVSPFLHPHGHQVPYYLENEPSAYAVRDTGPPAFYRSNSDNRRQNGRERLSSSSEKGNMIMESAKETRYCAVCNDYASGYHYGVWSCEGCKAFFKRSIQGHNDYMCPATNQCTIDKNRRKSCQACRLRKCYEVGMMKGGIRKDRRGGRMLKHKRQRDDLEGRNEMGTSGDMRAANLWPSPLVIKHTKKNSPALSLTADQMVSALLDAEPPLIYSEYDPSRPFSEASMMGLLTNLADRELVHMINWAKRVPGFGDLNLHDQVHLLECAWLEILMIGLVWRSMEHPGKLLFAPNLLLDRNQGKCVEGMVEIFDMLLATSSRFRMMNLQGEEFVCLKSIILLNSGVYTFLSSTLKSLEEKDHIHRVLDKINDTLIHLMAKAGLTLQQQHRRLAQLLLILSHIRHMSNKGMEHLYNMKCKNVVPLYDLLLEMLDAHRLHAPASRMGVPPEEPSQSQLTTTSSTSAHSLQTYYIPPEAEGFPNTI
Put plainly: Estrogen receptor binding assay, 3H-estradiol displacement from rat uterine cytosol. The following applies: 3H-estradiol displacement, cytosolic preparations of rat uterus; pIC50 of 4.00 = inactive; read-out: ER-RLB pIC50 (converted). The procedure: Uteri (6-10 per batch) were isolated from Brown Norway rats (250-350g), washed free from blood in saline and homogenised in 10 mM Tris buffer (pH 7.4, 1.5 mM EDTA, 10% w/v glycerol, 1 mM phenylmethylsulfonylfluoride) using an Ultra Turrax homogeniser for 3 by 15 s bursts with intervals of 1 min on ice.
Nuclear material and cellular debris were removed by centrifugation at 750×g at 4° C. for 10 min (Sorvall RT7); the cytosol component was prepared by centrifugation at 30000×g for 120 min at 4° C. in a Beckman JM1 centrifuge. The cytosol was diluted to approximately 1 mg/ml protein (rat uterine extract) determined using the Bradford method (Biorad).
Separation of bound from free radioligand was achieved by the addition of 500 μL of dextran-coated charcoal (400 mg dextran clinical grade C and 2g of charcoal, Norit A in 100 mL of Tris buffer) and centrifugation at 4° C. in a Sorval RT7 at 2000×g for 10 min.

Turning to `COc1cc2c(cc1O)CC[C@@H]1[C@@H]2CC[C@]2(C)/C(=N/OCc3ccc([N+](=O)[O-])cc3)CC[C@@H]12` [CP-DM-3-103, 2-methoxyestrone-17-(4-nitrobenzyl)oxime], the IC50 is 3.16 µM in test [1] and 40.7 µM in test [2]. Moreover, the “HASM - GM-CSF” value in test [3] is “either did not inhibit or produced less inhibition”.
For `COc1cc2c(cc1O)/C(=N/OCc1cccc([N+](=O)[O-])c1)C[C@@H]1[C@@H]2CC[C@]2(C)/C(=N/O)CC[C@@H]12` [CP-DM-3-105, 2-methoxy-6-(3-nitrobenzyloxy)iminoestrone-17-oxime], the IC50 on Estrogen Receptor (ER) was 25.1 µM; in test [1], 0.1 µM; in test [2], 5.13 µM. The “HASM- Thr pIC25” value in test [1] amounted to 8.85. In test [1], the “HASM- Thr pIC75” value came to 5.59.
The like results for `COc1cc2c(cc1O)/C(=N/OCc1cccc([N+](=O)[O-])c1)C[C@@H]1[C@@H]2CC[C@]2(C)[C@@H](O)CC[C@@H]12` [CP-DM-3-106, 2-methoxy-6-(3-nitrobenzyloxy)iminoestradiol] were, in that order, 0.178 µM, 0.0251 µM, 7.59 µM, 9.35 and 6.36.
Consider `COc1cc2c(cc1O)/C(=N/OCc1ccccc1[N+](=O)[O-])C[C@@H]1[C@@H]2CC[C@]2(C)/C(=N/O)CC[C@@H]12` [CP-DM-3-117, 2-methoxy-6-(2-nitrobenzyloxy)iminoestrone-17-oxime], for which the IC50 in test [1] was 6.46 µM; in test [2], 5.13 µM.
Regarding `COc1ccc(CO/N=C2\C[C@@H]3[C@H](CC[C@]4(C)[C@@H](O)CC[C@@H]34)c3cc(OC)c(O)cc32)cc1` [CP-DM-4-5, 2-methoxy-6-(4-methoxybenzyloxy)-iminoestradiol], the IC50 at Estrogen Receptor (ER) is 0.794 µM. In test [1], the IC50 is 0.135 µM, the “HASM- Thr pIC25” value came to 10.46 and the “HASM- Thr pIC75” value came out at 5.27. Further, the IC50 in test [2] was 5.01 µM.
Turning to `COc1cc2c(cc1O)/C(=N/OCc1cc(F)cc(F)c1)C[C@@H]1[C@@H]2CC[C@]2(C)/C(=N/O)CC[C@@H]12` [CP-DM-4-36, 6-(3,5-difluorobenzyloxy)imino-2-methoxyestrone-17-oxime], the IC50 on Estrogen Receptor (ER) is 20 µM. In test [1], the IC50 is 0.129 µM, the “HASM- Thr pIC25” value is 7.91 and the “HASM- Thr pIC75” value was found to be 5.69. Also, in test [2], the IC50 is 10 µM.
For `COc1cc2c(cc1O)/C(=N/OCc1ccc(OC(F)(F)F)cc1)C[C@@H]1[C@@H]2CC[C@]2(C)/C(=N/O)CC[C@@H]12` [CP-DM-4-68, 2-methoxy-6-(4-trifluoromethoxybenzyloxy)iminoestrone-17-oxime], in test [1], the IC50 was 1.82 µM, the “HASM- Thr pIC25” value worked out at 7.91 and the “HASM- Thr pIC75” value is on record as 5.00. Moreover, the “HASM - GM-CSF” value in test [3] is recorded as 8 ± 13.
For the compound `COc1cc2c(cc1O)/C(=N/OCc1ccc(C(C)C)cc1)C[C@@H]1[C@@H]2CC[C@]2(C)/C(=N/O)CC[C@@H]12` [CP-DM-4-77, 2-methoxy-6-(4-isopropylbenzyloxy)iminoestrone-17-oxime], the IC50 in test [1] was 3.02 µM; in test [2] it was 3.16 µM. Also, the “HASM - GM-CSF” value in test [3] was determined as 26 ± 13.
Turning to `COc1cc2c(cc1O)/C(=N/OCc1ccc(C)cc1)C[C@@H]1[C@@H]2CC[C@]2(C)[C@@H](O)CC[C@@H]12` [CP-DM-4-78, 2-methoxy-6-(4-methylbenzyloxy)iminoestradiol], the values for the IC50 (on Estrogen Receptor (ER); in test [1]; in test [2]) were 0.229 µM, 1 µM and 10 µM, respectively. In addition, the “HASM - GM-CSF” value in test [3] is on record as 35 ± 9*.
In the case of `COc1cc2c(cc1O)/C(=N/OCc1ccc([N+](=O)[O-])cc1)C[C@@H]1[C@@H]2CC[C@]2(C)[C@@H](OC(C)=O)CC[C@@H]12` [CP-DM-4-91, 2-Methoxy-6-(4-nitrobenzyloxy)iminoestradiol-17-acetate], the values for the IC50 in test [1] and in test [2] were 6.31 µM and 10 µM, respectively.
